Source: patent US10894048B2, “Antitumor drug for intermittent administration of FGFR inhibitor” (priority 2013, dated 2021)

What was measured:
[1] = system: Human-derived gastric cancer OCUM-2MD3 cells; details: OCUM-2MD3, 72 h
Method: Human-derived gastric cancer OCUM-2MD3 cells, which overexpressed FGFR2, were subcultured daily in a Dulbecco's modified Eagle's medium (DMEM) containing 10% fetal bovine serum (FBS) at a cell density of not more than 80%. In order to initiate a test of the cell growth-inhibitory effect of the compounds, the OCUM-2MD3 cells were suspended in the above DMEM medium and seeded in a 96-well flat-bottom plate so that each well contained 3,000 cells. Then, the cells were cultured in an incubator containing 5% carbon dioxide gas at 37° C. for one day. […] The DMSO solution of the test compound was diluted with the medium used for cultivation, and the diluted solution was added to each well of the cell culture plate so that the final concentration of DMSO became 0.5%. […] The number of cells was measured at the time of the addition of the test compound and 72 hours later after culture by using a Cell Counting Kit-8 (produced by Dojindo Laboratories) according to a protocol recommended by Dojindo Laboratories. […] After completion of the reaction, the absorbance at a wavelength of 450 nm was measured by a microplate reader.
Growth inhibition rate (%)=(C−T)/(C−C0)×100 • T: absorbance of well to which test compound was added • C: absorbance of well to which test compound was not added • C0: absorbance of well measured before addition of compound

[2] = molecular target: purified recombinant human FGFR2 protein (Homo sapiens (Human), UniProt P21802); assay: Inhibitory effect on FGFR2 kinase activity; assay type: biochemical; details: ATP 75 μM
purified recombinant human FGFR2 protein, sequence (P21802 22-821): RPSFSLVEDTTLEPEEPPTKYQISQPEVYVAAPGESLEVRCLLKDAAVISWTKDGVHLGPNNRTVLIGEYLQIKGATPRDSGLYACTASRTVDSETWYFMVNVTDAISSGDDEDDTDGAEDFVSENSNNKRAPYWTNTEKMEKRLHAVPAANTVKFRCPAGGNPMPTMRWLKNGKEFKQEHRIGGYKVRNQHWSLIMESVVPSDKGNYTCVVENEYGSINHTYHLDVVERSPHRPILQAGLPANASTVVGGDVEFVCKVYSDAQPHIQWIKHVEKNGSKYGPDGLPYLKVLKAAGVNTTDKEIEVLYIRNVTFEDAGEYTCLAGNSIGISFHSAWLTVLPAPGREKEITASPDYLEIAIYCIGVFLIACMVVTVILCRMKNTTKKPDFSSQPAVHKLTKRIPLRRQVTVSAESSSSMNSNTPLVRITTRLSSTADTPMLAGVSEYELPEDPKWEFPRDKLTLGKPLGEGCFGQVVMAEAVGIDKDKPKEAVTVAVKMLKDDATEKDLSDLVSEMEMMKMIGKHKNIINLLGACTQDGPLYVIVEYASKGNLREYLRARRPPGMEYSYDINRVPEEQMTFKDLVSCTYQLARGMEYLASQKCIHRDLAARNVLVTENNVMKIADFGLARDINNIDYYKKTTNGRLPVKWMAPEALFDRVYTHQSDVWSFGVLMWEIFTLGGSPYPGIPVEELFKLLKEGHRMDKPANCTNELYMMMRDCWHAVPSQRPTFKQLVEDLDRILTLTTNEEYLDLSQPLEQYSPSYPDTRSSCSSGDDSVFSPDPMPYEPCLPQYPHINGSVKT
Method: Measurement of Inhibitory Effect on FGFR2 Kinase Activity
EDTA (final concentration: 30 mM) diluted with a separation buffer (Caliper Life Sciences, Inc.) was added thereto to terminate the kinase reaction. […] The level of phosphorylation was determined from the quantitative ratio.

Structure (SMILES): C=CC(=O)N1C[C@@H](n2cc(C#Cc3cc(OC)cc(OC)c3)c3c(N)ncnc32)C[C@H]1C(=O)OC [Ex. Compound 66, (2S,4S)-methyl 1-acryloyl-4-(4-amino-5-((3,5-dimethoxyphenyl)ethynyl)-7H-pyrrolo[2,3-d]pyrimidin-7-yl)pyrrolidine-2-carboxylate]
- GI50 [1]: < 0.0046 µM

Structure (SMILES): CC(C)c1cc(C#Cc2nn([C@H]3CCN(C(=O)/C=C/CN(C)C)C3)c3ncnc(N)c23)cc(C(C)C)c1 [Ref. Ex. Compound 4, (S)-1-(3-(4-amino-3-((3,5-diisopropylphenyl)ethynyl)-1H-pyrazolo[3,4-d]pyrimidin-1-yl)pyrrolidin-1-yl)-4-(dimethylamino)but-2-en-1-one]
- IC50 [2]: > 10 µM
